Values of other authors, collected in publication PMC6838683, “Discovery of Human Signaling Systems: Pairing Peptides to G Protein-Coupled Receptors” (Cell, 2019).
Where two headings read alike, the source gives them in different places. No end group written: not given here.

Molecular target: human GPCRs
Parameters: method as in Guide to Pharmacology database
Conditions: cited from earlier work
Excerpt: Supplement mmc1.xlsx, sheet "HumanGPCRLigands" | column: pKi_value; pKd_value; pEC50_value; pIC50_value

[1] = receptor gasr_human (CCKBR, P32239), max reported value, ref Guide to Pharmacology database
[2] = receptor CCR2 (ccr2_human, P41597), max reported value, ref Guide to Pharmacology database
[3] = receptor CCR3 (ccr3_human, P51677), max reported value, ref Guide to Pharmacology database
[4] = receptor CCR5 (ccr5_human, P51681), max reported value, ref Guide to Pharmacology database
[5] = receptor CCR1 (ccr1_human, P32246), max reported value, ref Guide to Pharmacology database
[6] = receptor CCR7 (ccr7_human, P32248), max reported value, ref Guide to Pharmacology database
[7] = receptor SSTR1 (ssr1_human, P30872), max reported value, ref Guide to Pharmacology database
[8] = receptor SSTR2 (ssr2_human, P30874), max reported value, ref Guide to Pharmacology database
[9] = receptor SSTR3 (ssr3_human, P32745), max reported value, ref Guide to Pharmacology database
[10] = receptor SSTR4 (ssr4_human, P31391), max reported value, ref Guide to Pharmacology database
[11] = receptor SSTR5 (ssr5_human, P35346), max reported value, ref Guide to Pharmacology database
[12] = receptor CXCR1 (cxcr1_human, P25024), max reported value, ref Guide to Pharmacology database
[13] = receptor CXCR2 (cxcr2_human, P25025), max reported value, ref Guide to Pharmacology database
[14] = receptor CXCR3 (cxcr3_human, P49682), max reported value, ref Guide to Pharmacology database
[15] = receptor vipr1_human (VIPR1, P32241), max reported value, ref Guide to Pharmacology database
[16] = receptor gnrhr_human (GNRHR, P30968), max reported value, ref Guide to Pharmacology database
[17] = receptor RXFP4 (rl3r2_human, Q8TDU9), max reported value, ref Guide to Pharmacology database
[18] = receptor pacr_human (ADCYAP1R1, P41586), max reported value, ref Guide to Pharmacology database
[19] = receptor vipr2_human (VIPR2, P41587), max reported value, ref Guide to Pharmacology database
[20] = receptor pth2r_human (PTH2R, P49190), max reported value, ref Guide to Pharmacology database
[21] = receptor OPRD1 (oprd_human, P41143), max reported value, ref Guide to Pharmacology database
[22] = receptor OPRM1 (oprm_human, P35372), max reported value, ref Guide to Pharmacology database
[23] = receptor apj_human (APLNR, P35414), max reported value, ref Guide to Pharmacology database
[24] = receptor mrgx1_human (MRGPRX1), Class A orphans, max reported value, ref Guide to Pharmacology database
[25] = receptor OPRK1 (oprk_human, P41145), max reported value, ref Guide to Pharmacology database

NC(=O)CC[C@@H]1NC(=O)[C@H](Cc2ccccc2)NC(=O)[C@H](Cc2ccc(O)cc2)NC(=O)[C@@H](N)CSSC[C@@H](C(=O)N2CCC[C@H]2C(=O)N[C@@H](CCCN=C(N)N)C(=O)NCC(N)=O)NC(=O)[C@H](CC(N)=O)NC1=O [vasopressin]
pKi_value (receptor AVPR1A (v1ar_human, P37288), max reported value, ref Guide to Pharmacology database): 9.3 | pKi_value (receptor AVPR1B (v1br_human, P47901), max reported value, ref Guide to Pharmacology database): 9.5 | pKi_value (receptor AVPR2 (v2r_human, P30518), max reported value, ref Guide to Pharmacology database): 9.1 | pKi_value (receptor OXTR (oxyr_human, P30559), max reported value, ref Guide to Pharmacology database): 9.3

O=C(O)CCC(=O)C(=O)O [α-ketoglutaric acid]
pEC50_value (receptor oxgr1_human (OXGR1), Oxoglutarate receptors, max reported value, ref Guide to Pharmacology database): 4.5

C[C@@H](O)CC(=O)O [β-D-hydroxybutyric acid]
pEC50_value (receptor hcar2_human (HCAR2), Hydroxycarboxylic acid receptors, max reported value, ref Guide to Pharmacology database): 3.1

NCCC(=O)O [β-alanine]
pEC50_value (receptor mrgrd_human (MRGPRD), Class A orphans, max reported value, ref Guide to Pharmacology database): 4.8

NCCc1ccccc1 [β-phenylethylamine]
pEC50_value (receptor taar1_human (TAAR1, Q96RJ0), max reported value, ref Guide to Pharmacology database): 7

(-)-adrenaline
pKi_value (receptor ada1a_human (ADRA1A, P35348), max reported value, ref Guide to Pharmacology database): 6.5 | pKi_value (receptor ada1b_human (ADRA1B, P35368), max reported value, ref Guide to Pharmacology database): 6.5 | pKi_value (receptor ada1d_human (ADRA1D, P25100), max reported value, ref Guide to Pharmacology database): 7.2 | pKi_value (receptor ada2a_human (ADRA2A, P08913), max reported value, ref Guide to Pharmacology database): 7.4 | pKi_value (receptor ada2b_human (ADRA2B, P18089), max reported value, ref Guide to Pharmacology database): 5.2 | pKi_value (receptor ada2c_human (ADRA2C, P18825), max reported value, ref Guide to Pharmacology database): 5.8 | pKi_value (receptor adrb1_human (ADRB1, P08588), max reported value, ref Guide to Pharmacology database): 6 | pKi_value (receptor adrb2_human (ADRB2, P07550), max reported value, ref Guide to Pharmacology database): 6.2 | pKi_value (receptor adrb3_human (ADRB3, P13945), max reported value, ref Guide to Pharmacology database): 3.9

Big endothelin-1 (CSCSSLMDKECVYFCHLDIIWVNTPEHVVPYGLGSPRS; not fully specified; ends and bridges not checked; UniProt P05305 53-90, looked up)
pIC50_value (receptor ednra_human (EDNRA, P25101), max reported value, ref Guide to Pharmacology database): 8.5

CCK-4
pIC50_value [1]: 7.5

CCK-8
pIC50_value [1]: 10

CCL2
pIC50_value [2]: 10.2 | pKi_value [3]: 7.8 | pKi_value [4]: 7.5

CCL3
pKi_value [5]: 10.2 | pKi_value [4]: 8.9

CCL5
pKi_value [5]: 8.2 | pKi_value [3]: 9.3 | pKi_value [4]: 9.7 | pEC50_value (receptor gpr75_human (GPR75), Class A orphans, max reported value, ref Guide to Pharmacology database): 9.6

CCL7
pKi_value [5]: 8.1 | pIC50_value [2]: 8.7 | pKi_value [3]: 9.2 | pKi_value [4]: 7.5

CCL11
pIC50_value [2]: 7.7 | pIC50_value [3]: 9 | pKi_value [3]: 10 | pIC50_value [4]: 7.7

CCL13
pIC50_value [2]: 8.7 | pIC50_value [3]: 10.3

CCL19
pIC50_value [6]: 9 | pKd_value [6]: 10 | pIC50_value (receptor CCRL2 (ccrl2_human, O00421), max reported value, ref Guide to Pharmacology database): 7.4

CCL20
pIC50_value (receptor CCR6 (ccr6_human, P51684), max reported value, ref Guide to Pharmacology database): 8.5

CCL26
pIC50_value [2]: 8.5 | pIC50_value [3]: 8.9

CST-17
pKi_value [7]: 9.6 | pKi_value [8]: 9.3 | pKi_value [9]: 9.9 | pKi_value [10]: 9.6 | pKi_value [11]: 10.2

CXCL1
pKi_value [12]: 6.4 | pKi_value [13]: 9.7

CXCL2
pIC50_value [13]: 9.1

CXCL3
pIC50_value [13]: 9.2

CXCL5
pIC50_value [13]: 9

CXCL6
pKi_value [12]: 7 | pKd_value [13]: 7

CXCL8
pKd_value [12]: 8.1 | pKi_value [12]: 9.5 | pKi_value [13]: 9.5

CXCL9
pKi_value [14]: 8.3

CXCL10
pKi_value [14]: 9.8

CXCL11
pKi_value [14]: 10.5

CXCL13
pKd_value (receptor CXCR5 (cxcr5_human, P32302), max reported value, ref Guide to Pharmacology database): 7.3

GHRH
pKi_value [15]: 6.2

GnRH I
pEC50_value [16]: 10 | pIC50_value [16]: 8.6 | pKd_value [16]: 8.5 | pKi_value [16]: 8.4

GnRH II (QHWSHGWYPG; ends and bridges not checked; UniProt O43555 24-33, looked up)
pIC50_value [16]: 7.9

INSL5 (Insulin-like peptide INSL5 B … KESVRLCGLEYIRTVIYICASSRW; Insulin-like peptide INSL5 A … QDLQTLCCTDGCSMTDLSALC; UniProt Q9Y5Q6 23-46; Q9Y5Q6 115-135, looked up)
pEC50_value [17]: 8.9 | pIC50_value [17]: 8.9 | pKi_value [17]: 8.8

PACAP-38 [reference compound]
pEC50_value [18]: 10.3 | pKi_value [18]: 9 | pEC50_value [15]: 9.7 | pKi_value [15]: 8.2 | pEC50_value [19]: 9.3

PTHrP-(1-36)
pIC50_value (receptor pth1r_human (PTH1R, Q03431), max reported value, ref Guide to Pharmacology database): 6.5 | pIC50_value [20]: 5.7

PrRP-20 (TPDINPAWYASRGIRPVGRF; not fully specified; ends and bridges not checked; UniProt P81277 34-53, looked up)
pKi_value (receptor PRLHR (prlhr_human, P49683), max reported value, ref Guide to Pharmacology database): 9.6

QRFP43 (QDEGSEATGFLPAAGEKTSGPLGNLAEELNGYSRKKGGFSFRF-NH2; UniProt P83859 91-133, looked up)
pEC50_value (receptor QRFPR (qrfpr_human, Q96P65), max reported value, ref Guide to Pharmacology database): 8.6

SRIF-14
pKi_value [7]: 9.5 | pKi_value [8]: 10.5 | pKi_value [9]: 10 | pKi_value [10]: 9.3 | pKi_value [11]: 9.9

T-kinin (ISRPPGFSPFR)
pKi_value (receptor bkrb1_human (BDKRB1, P46663), max reported value, ref Guide to Pharmacology database): 5.2

TIP39
pIC50_value [20]: 9.2

VIP
pEC50_value [18]: 7.8 | pIC50_value [18]: 6 | pKi_value [18]: 6.3 | pEC50_value [15]: 7.9 | pIC50_value [15]: 8 | pKi_value [15]: 9 | pEC50_value [19]: 7.3 | pIC50_value [19]: 8.3 | pKi_value [19]: 8.7

[Leu]enkephalin
pKi_value [21]: 8.7 | pKi_value [22]: 8.1

amylin (KCNTATCATQRLANFLVHSSNNFGAILSSTNVGSNTY; not fully specified; cysteine pairing not given here; UniProt P10997 34-70, looked up)
pEC50_value (receptor calcr_human (CALCR), Calcitonin receptors, Class B1 (Secretin), max reported value, ref Guide to Pharmacology database): 9.2

angiotensin II (DRVYIHPF)
pIC50_value (receptor agtr1_human (AGTR1, P30556), max reported value, ref Guide to Pharmacology database): 9.3 | pKd_value (receptor agtr2_human (AGTR2, P50052), max reported value, ref Guide to Pharmacology database): 10.2

apelin-13
pIC50_value: 9.5

apelin-17
pIC50_value [23]: 9

apelin-36 (LVQPRGSRNGPGPWQGGRRKFRRQRPRLSHKGPMPF; not fully specified; UniProt Q9ULZ1 42-77, looked up)
pIC50_value [23]: 8.6

bovine adrenal medulla peptide 8-22
pEC50_value [24]: 7.8 | pKd_value [24]: 8 | pKi_value [24]: 7.7

calcitonin
pEC50_value (receptor calcr_human (CALCR, P30988), Calcitonin receptors, max reported value, ref Guide to Pharmacology database): 11.2

corticotrophin-releasing hormone
pKd_value (receptor crfr1_human (CRHR1, P34998), max reported value, ref Guide to Pharmacology database): 9 | pKd_value (receptor crfr2_human (CRHR2, Q13324), max reported value, ref Guide to Pharmacology database): 7.4

dynorphin A
pKi_value [21]: 7.4 | pKi_value [25]: 10.8 | pKi_value [22]: 8.1

dynorphin A-(1-8)
pKi_value [21]: 8.4 | pKi_value [25]: 9.9 | pKi_value [22]: 8.4

dynorphin A-(1-13)
pKi_value [21]: 7.8 | pKi_value [25]: 10.7 | pKi_value [22]: 8.3
